{
  "source": "patent US12063932B2",
  "about": "“Method of promoting plant growth effects” (Bayer CropScience Aktiengesellschaft, priority 2016, dated 2024)",
  "format_in_all_cases": "in vivo",
  "key": {"[1]": {"tested_on": "Soybean seeds of the variety Merlin", "experiment": "Soybean seed treatment: root volume after 19 days (Example B)", "settings": "untreated control 0.82", "procedure": "(§1) Soybean seeds of the variety Merlin were treated with 1.2, 0.6 and 0.3 g of compound (A) per 100 kg seeds. Compound (A) was provided as an aqueous solution with a concentration of 1000 ppm compound (A). The treated seeds were seeded into soil/quartz in five replicates at the same day. Germination was observed four days later. Root volume was determined after 19 days."}, "[2]": {"tested_on": "Soybean seeds of the variety Merlin", "experiment": "Soybean seed treatment: plant height, fresh and dry weight of stem and roots after 19 days (Example A)", "settings": "for dry weight roots, % of untreated control / dry weight stem, % of untreated control / fresh weight roots, % of untreated control / fresh weight stem, % of untreated control: untreated control given as 100", "procedure": "as §1, with “Plant height, fresh and dry weight of stem and roots were” for “Root volume was”"}, "[3]": {"tested_on": "Roses of the variety Kordana Mixkar", "experiment": "Rose foliar application: number of flowers by visual inspection (Example D)", "settings": "for No Flowers, Average (A to E): average of five replicates, untreated controls 9.4 and 10.2; for No Flowers, A: replicate A; for No Flowers, A / No Flowers, B / No Flowers, C / No Flowers, D / No Flowers, E: assessed 2016-06-14; for No Flowers, B: replicate B; for No Flowers, C: replicate C; for No Flowers, D: replicate D; for No Flowers, E: replicate E", "procedure": "FIGS. 2A-2H. Rose plants of the variety Kordana Mixkar were treated in five replicates. Untreated control is shown in FIG. 2A (side view) and FIG. 2B (top view). Treatment at 1 ppm is shown in FIG. 2C (side view) and FIG. 2D (top view). Treatment at 80 ppm is shown in FIG. 2E (side view) and FIG. 2F (top view). Treatment at 420 ppm is showing in FIG. 2G (side view) and FIG. 2H (top view). Rose plants were evaluated for quantity and fullness of flowers.\nRoses of the variety Kordana Mixkar were cultivated in 2 litre pots in soil in the greenhouse at 23 degree Celsius and 80% humidity. Compound (A) and Clopyralid as a comparison were applied as a foliar application on 2016-05-25 at application rates according to the following table 3 Ammonium sulfate and methylated soybean oil were used as penetration enhancing agents.\nRose plants were treated in five replicates. The number of flowers was assessed by visual inspection on 2016-06-14."}, "[4]": {"tested_on": "Soybean seeds of the variety Merlin", "experiment": "Soybean seed treatment: comparative photographs of seedlings after 19 days (Example C)", "procedure": "FIGS. 1A-1H. Soybean seeds of the variety Merlin were untreated FIG. 1A (top view) and FIG. 1B (side view), or treated 1.2 g/100 kg/seeds of Compound (A) in FIG. 1C (top view) and FIG. 1D (side view); or treated with 0.6 g/100 kg seeds of Compound (A) in FIG. 1E (Lop view) and FIG. 1F (side view); or treated with 0.3 g/100 kg seeds of compound (A) in FIG. 1G (top view) and FIG. 1H (side view). Seedlings were evaluated after 19 days. Soybean seeds of the variety Merlin were treated with 1.2, 0.6 and 0.3 g of compound (A) per 100 kg seeds. Compound (A) was provided as an aqueous solution with a concentration of 1000 ppm compound (A). The treated seeds were seeded into soil/quartz in five replicates at the same day. Germination was observed four days later. Comparative photographs were taken after 19 days."}, "[5]": {"settings": "seed treatment 0.3 g/100 kg seeds"}, "[6]": {"settings": "seed treatment 0.6 g/100 kg seeds"}, "[7]": {"settings": "seed treatment 1.2 g/100 kg seeds"}, "[8]": {"settings": "0.3 g/100 kg seeds, photographs after 19 days (FIGS. 1G, 1H)"}, "[9]": {"settings": "0.6 g/100 kg seeds, photographs after 19 days (FIGS. 1E, 1F)"}},
  "data": [
    {"molecule": "O=C(O)c1ncc(C(F)(F)F)cc1Cl", "note": "[Compound (A), 3-chloro-5-(trifluoromethyl)pyridine-2-carboxylic acid]", "values": [
      {"measurement": "Root volume [cm^3]", "setting": "[1]; [5]", "result": 0.83, "unit": "cm^3"},
      {"measurement": "Root volume [cm^3]", "setting": "[1]; [6]", "result": 0.96, "unit": "cm^3"},
      {"measurement": "Root volume [cm^3]", "setting": "[1]; [7]", "result": 0.50, "unit": "cm^3"},
      {"measurement": "Fresh weight plant", "setting": "[2]; [5]", "result": 2.62, "unit": "g"},
      {"measurement": "Plant height [% of untreated control]", "setting": "[2]; [5]", "result": "111 % of untreated control"},
      {"measurement": "dry weight roots, % of untreated control", "setting": "[2]; [5]", "result": 105, "unit": "%"},
      {"measurement": "dry weight stem, % of untreated control", "setting": "[2]; [5]", "result": 114, "unit": "%"},
      {"measurement": "fresh weight roots, % of untreated control", "setting": "[2]; [5]", "result": 106, "unit": "%"},
      {"measurement": "fresh weight stem, % of untreated control", "setting": "[2]; [5]", "result": 103, "unit": "%"},
      {"measurement": "Fresh weight plant", "setting": "[2]; [6]", "result": 2.53, "unit": "g"},
      {"measurement": "Plant height [% of untreated control]", "setting": "[2]; [6]", "result": "103 % of untreated control"},
      {"measurement": "dry weight roots, % of untreated control", "setting": "[2]; [6]", "result": 108, "unit": "%"},
      {"measurement": "dry weight stem, % of untreated control", "setting": "[2]; [6]", "result": 107, "unit": "%"},
      {"measurement": "fresh weight roots, % of untreated control", "setting": "[2]; [6]", "result": 107, "unit": "%"},
      {"measurement": "fresh weight stem, % of untreated control", "setting": "[2]; [6]", "result": 100, "unit": "%"},
      {"measurement": "Fresh weight plant", "setting": "[2]; [7]", "result": 2.24, "unit": "g"},
      {"measurement": "Plant height [% of untreated control]", "setting": "[2]; [7]", "result": "87 % of untreated control"},
      {"measurement": "dry weight roots, % of untreated control", "setting": "[2]; [7]", "result": 68, "unit": "%"},
      {"measurement": "dry weight stem, % of untreated control", "setting": "[2]; [7]", "result": 77, "unit": "%"},
      {"measurement": "fresh weight roots, % of untreated control", "setting": "[2]; [7]", "result": 69, "unit": "%"},
      {"measurement": "fresh weight stem, % of untreated control", "setting": "[2]; [7]", "result": 88, "unit": "%"},
      {"measurement": "No Flowers, Average (A to E)", "setting": "[3]; 1 ppm foliar", "result": 9.6},
      {"measurement": "No Flowers, A", "setting": "[3]; 1 ppm foliar", "result": 8},
      {"measurement": "No Flowers, B", "setting": "[3]; 1 ppm foliar", "result": 7},
      {"measurement": "No Flowers, C", "setting": "[3]; 1 ppm foliar", "result": 11},
      {"measurement": "No Flowers, D", "setting": "[3]; 1 ppm foliar", "result": 10},
      {"measurement": "No Flowers, E", "setting": "[3]; 1 ppm foliar", "result": 12},
      {"measurement": "No Flowers, Average (A to E)", "setting": "[3]; 10 ppm foliar", "result": 10.2},
      {"measurement": "No Flowers, A", "setting": "[3]; 10 ppm foliar", "result": 11},
      {"measurement": "No Flowers, B", "setting": "[3]; 10 ppm foliar", "result": 10},
      {"measurement": "No Flowers, C", "setting": "[3]; 10 ppm foliar", "result": 10},
      {"measurement": "No Flowers, D", "setting": "[3]; 10 ppm foliar", "result": 10},
      {"measurement": "No Flowers, E", "setting": "[3]; 10 ppm foliar", "result": 10},
      {"measurement": "No Flowers, Average (A to E)", "setting": "[3]; 20 ppm foliar", "result": 10.6},
      {"measurement": "No Flowers, A", "setting": "[3]; 20 ppm foliar", "result": 11},
      {"measurement": "No Flowers, B", "setting": "[3]; 20 ppm foliar", "result": 10},
      {"measurement": "No Flowers, C", "setting": "[3]; 20 ppm foliar", "result": 12},
      {"measurement": "No Flowers, D", "setting": "[3]; 20 ppm foliar", "result": 10},
      {"measurement": "No Flowers, E", "setting": "[3]; 20 ppm foliar", "result": 10},
      {"measurement": "No Flowers, Average (A to E)", "setting": "[3]; 40 ppm foliar", "result": 11.2},
      {"measurement": "No Flowers, A", "setting": "[3]; 40 ppm foliar", "result": 11},
      {"measurement": "No Flowers, B", "setting": "[3]; 40 ppm foliar", "result": 8},
      {"measurement": "No Flowers, C", "setting": "[3]; 40 ppm foliar", "result": 13},
      {"measurement": "No Flowers, D", "setting": "[3]; 40 ppm foliar", "result": 12},
      {"measurement": "No Flowers, E", "setting": "[3]; 40 ppm foliar", "result": 12},
      {"measurement": "No Flowers, Average (A to E)", "setting": "[3]; 80 ppm foliar", "result": 11.4},
      {"measurement": "No Flowers, A", "setting": "[3]; 80 ppm foliar", "result": 12},
      {"measurement": "No Flowers, B", "setting": "[3]; 80 ppm foliar", "result": 13},
      {"measurement": "No Flowers, C", "setting": "[3]; 80 ppm foliar", "result": 11},
      {"measurement": "No Flowers, D", "setting": "[3]; 80 ppm foliar", "result": 11},
      {"measurement": "No Flowers, E", "setting": "[3]; 80 ppm foliar", "result": 10},
      {"measurement": "No Flowers, Average (A to E)", "setting": "[3]; 170 ppm foliar", "result": 8.8},
      {"measurement": "No Flowers, A", "setting": "[3]; 170 ppm foliar", "result": 8},
      {"measurement": "No Flowers, B", "setting": "[3]; 170 ppm foliar", "result": 10},
      {"measurement": "No Flowers, C", "setting": "[3]; 170 ppm foliar", "result": 10},
      {"measurement": "No Flowers, D", "setting": "[3]; 170 ppm foliar", "result": 5},
      {"measurement": "No Flowers, E", "setting": "[3]; 170 ppm foliar", "result": 11},
      {"measurement": "No Flowers, Average (A to E)", "setting": "[3]; 250 ppm foliar", "result": 5.4},
      {"measurement": "No Flowers, A", "setting": "[3]; 250 ppm foliar", "result": 3},
      {"measurement": "No Flowers, B", "setting": "[3]; 250 ppm foliar", "result": 9},
      {"measurement": "No Flowers, C", "setting": "[3]; 250 ppm foliar", "result": 3},
      {"measurement": "No Flowers, D", "setting": "[3]; 250 ppm foliar", "result": 4},
      {"measurement": "No Flowers, E", "setting": "[3]; 250 ppm foliar", "result": 8},
      {"measurement": "No Flowers, Average (A to E)", "setting": "[3]; 420 ppm foliar", "result": 5},
      {"measurement": "No Flowers, A", "setting": "[3]; 420 ppm foliar", "result": 8},
      {"measurement": "No Flowers, B", "setting": "[3]; 420 ppm foliar", "result": 7},
      {"measurement": "No Flowers, C", "setting": "[3]; 420 ppm foliar", "result": 3},
      {"measurement": "No Flowers, D", "setting": "[3]; 420 ppm foliar", "result": 4},
      {"measurement": "No Flowers, E", "setting": "[3]; 420 ppm foliar", "result": 3},
      {"measurement": "No Flowers, Average (A to E)", "setting": "[3]; 850 ppm foliar", "result": 5.2},
      {"measurement": "No Flowers, A", "setting": "[3]; 850 ppm foliar", "result": 2},
      {"measurement": "No Flowers, B", "setting": "[3]; 850 ppm foliar", "result": 3},
      {"measurement": "No Flowers, C", "setting": "[3]; 850 ppm foliar", "result": 10},
      {"measurement": "No Flowers, D", "setting": "[3]; 850 ppm foliar", "result": 5},
      {"measurement": "No Flowers, E", "setting": "[3]; 850 ppm foliar", "result": 6},
      {"measurement": "quantity and fullness of flowers versus untreated controls", "setting": "[3]; foliar application, up to a concentration of 80 ppm, FIGS. 2C-2H", "result": "more and fuller flowers than the untreated controls"},
      {"measurement": "biomass of leaves in comparison to the untreated control", "setting": "[4]; [8]", "result": "increased biomass of leaves"},
      {"measurement": "growth of the seedlings in comparison to the untreated control", "setting": "[4]; [8]", "result": "higher growth of the seedlings"},
      {"measurement": "biomass of leaves in comparison to the untreated control", "setting": "[4]; [9]", "result": "increased biomass of leaves"},
      {"measurement": "growth of the seedlings in comparison to the untreated control", "setting": "[4]; [9]", "result": "higher growth of the seedlings"}
    ]}
  ]
}
